# From PubChem BioAssay (NCI)
#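 Assay format: 96-well plates, 48-hour exposure. TGI: total growth inhibition.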 Where a SMILES comes first, the peptide text is derived from it. The star is where a group is joined. Boc = CC(C)(C)OC(=O)*
# Assays:
# Test in all cases: growth of human tumour cells (NCI), 48 h
# [1] = tested on: BT-549 breast
# [2] = tested on: EKVX NSCLC
# [3] = tested on: HCC-2998 colon
# [4] = tested on: HL-60(TB) leukemia
# [5] = tested on: LOX IMVI melanoma
# [6] = tested on: M14 melanoma
# [7] = tested on: MALME-3M melanoma
# [8] = tested on: MCF7 breast
# [9] = tested on: MDA-MB-231 breast
# [10] = tested on: MOLT-4 leukemia
# [11] = tested on: NCI-H460 lung
# [12] = tested on: SK-OV-3 ovarian
# [13] = tested on: SN12C renal
# [14] = tested on: SR leukemia
# [15] = tested on: SW-620 colon
# [16] = tested on: UACC-257 melanoma
SMILES,TGI [1],TGI [2],TGI [3],TGI [4],TGI [5],TGI [6],TGI [7],TGI [8],TGI [9],TGI [10],TGI [11],TGI [12],TGI [13],TGI [14],TGI [15],TGI [16]
Brc1c2c(c(Br)c3nsnc13)N=S=N2,26.9 µM,> 74 µM,> 100 µM,12.3 µM,13.9 µM,50.5 µM,> 72.6 µM,> 65.6 µM,60.7 µM,68.9 µM,> 69.3 µM,> 79.7 µM,32.8 µM,14.1 µM,> 68.5 µM,> 100 µM
OCC1C2CCC3(OCCO3)C12 (stereo not given),35.6 µM,> 100 µM,> 100 µM,–,> 100 µM,> 100 µM,> 100 µM,> 100 µM,> 100 µM,> 100 µM,> 100 µM,> 100 µM,> 100 µM,> 100 µM,> 100 µM,> 100 µM
CCOC(=O)c1cc(C2=CCNC2=O)c(-c2cc(C)no2)[nH]1,> 100 µM,> 100 µM,> 100 µM,56.8 µM,> 100 µM,> 100 µM,> 100 µM,> 100 µM,> 100 µM,> 100 µM,> 100 µM,> 100 µM,> 100 µM,> 100 µM,> 100 µM,> 100 µM
COc1ccc(Cc2cc(OC)c(OC)c(OC)c2)cc1,75.6 µM,> 100 µM,1.4 µM,0.308 µM,> 89.7 µM,> 100 µM,> 100 µM,> 100 µM,> 30.7 µM,23.9 µM,47 µM,23.2 µM,> 89.3 µM,1.4 µM,> 100 µM,> 71.8 µM
CCOc1cc(/C=N/c2nc3cc4sc(/N=C/c5ccc(O)c(OCC)c5)nc4cc3s2)ccc1O,> 100 µM,> 100 µM,> 100 µM,19.9 µM,> 100 µM,> 100 µM,> 100 µM,> 100 µM,> 100 µM,> 100 µM,> 100 µM,> 100 µM,> 100 µM,> 100 µM,> 100 µM,> 100 µM
Clc1cc2nc(C3CCCCO3)[nH]c2cc1Cl (stereo not given),68.1 µM,> 100 µM,96.9 µM,> 53.5 µM,> 100 µM,> 100 µM,> 100 µM,36.5 µM,> 100 µM,> 100 µM,> 100 µM,> 100 µM,> 100 µM,> 100 µM,> 100 µM,> 100 µM
Cc1ccc(NC(=O)CC(=O)N2N=C(N3CCCCC3)CC2c2ccccc2)cc1 (stereo not given),> 100 µM,> 100 µM,> 100 µM,> 100 µM,> 100 µM,> 100 µM,> 100 µM,> 100 µM,> 100 µM,> 100 µM,> 100 µM,–,> 100 µM,> 100 µM,> 100 µM,> 100 µM
COc1ccc2nc3cc([N+](=O)[O-])ccc3c(NNc3ccc([N+](=O)[O-])cc3)c2c1,> 100 µM,> 100 µM,69.4 µM,54.2 µM,> 100 µM,> 100 µM,> 92.5 µM,> 100 µM,> 91.6 µM,> 100 µM,> 59.7 µM,> 100 µM,> 100 µM,> 69 µM,> 64.7 µM,16 µM
COc1ccc(C[n+]2cccc(O)c2)cc1,> 100 µM,> 100 µM,> 100 µM,> 100 µM,–,> 100 µM,> 100 µM,> 100 µM,> 100 µM,> 100 µM,> 100 µM,> 100 µM,> 100 µM,> 100 µM,> 100 µM,–
COC(O)C(=O)c1c2c(cc3c1CCC3)CCC2 (stereo not given),> 100 µM,> 100 µM,> 100 µM,79.9 µM,> 100 µM,> 100 µM,> 100 µM,> 100 µM,> 100 µM,> 100 µM,> 100 µM,> 100 µM,> 100 µM,> 100 µM,> 100 µM,> 100 µM
Cc1nn(C(=O)c2ccc(Cl)cc2)c2c1C(c1ccccc1O)SC(N)=N2 (stereo not given),> 10 µM,> 10 µM,> 10 µM,> 10 µM,> 10 µM,> 10 µM,> 10 µM,> 10 µM,> 10 µM,> 10 µM,> 10 µM,> 10 µM,> 10 µM,> 10 µM,> 10 µM,> 10 µM
COc1ccc(OC)c(N=Cc2cc(OC)c(OC)c(OC)c2)c1,> 100 µM,> 100 µM,> 100 µM,> 100 µM,> 100 µM,> 100 µM,> 100 µM,> 100 µM,> 100 µM,> 100 µM,> 100 µM,> 100 µM,> 100 µM,> 100 µM,> 100 µM,> 100 µM
Cc1cc(O)c2c(c1)C(C1OC(CO)C(O)C(O)C1O)c1cc(O)cc(O)c1C2=O (stereo not given),> 100 µM,> 100 µM,> 100 µM,> 100 µM,–,> 100 µM,> 100 µM,> 100 µM,> 100 µM,> 100 µM,> 100 µM,> 100 µM,> 100 µM,> 100 µM,> 100 µM,> 100 µM
O=C1C=CC(=O)c2c(O)c(NCCO)c(Cl)c(O)c21,> 5.74 µM,> 10 µM,> 7.21 µM,5.95 µM,3 µM,4.78 µM,2.71 µM,3.94 µM,6.37 µM,> 10 µM,8.68 µM,> 10 µM,> 5.55 µM,> 6.94 µM,5.11 µM,2.78 µM
CC1(C)CCCC2CC2CCC(C)(C)C1=O (stereo not given),> 100 µM,> 100 µM,21.7 µM,41.2 µM,> 100 µM,> 100 µM,> 100 µM,75.8 µM,> 100 µM,83.1 µM,> 100 µM,> 100 µM,> 100 µM,45.6 µM,> 100 µM,> 100 µM
Fc1ccc(Oc2nc3ccccc3nc2-c2ccccc2)cc1,> 100 µM,> 100 µM,> 100 µM,> 100 µM,> 100 µM,–,> 100 µM,> 100 µM,> 100 µM,> 100 µM,> 100 µM,> 100 µM,> 100 µM,> 100 µM,> 100 µM,> 100 µM
CCCCCCc1cc2cc(C(=O)NCc3ccccc3)c(=N)oc2cc1O,> 100 µM,> 100 µM,> 100 µM,> 100 µM,> 100 µM,> 100 µM,> 100 µM,> 100 µM,> 100 µM,> 100 µM,> 100 µM,> 100 µM,> 100 µM,> 100 µM,> 100 µM,> 100 µM
Cc1ccc(C(=O)O)c(/C=C2\Cc3cc(C)cc(C)c3C2=O)c1,> 100 µM,> 100 µM,> 100 µM,> 100 µM,> 100 µM,–,> 100 µM,> 100 µM,> 100 µM,> 100 µM,> 100 µM,–,> 100 µM,> 100 µM,> 100 µM,> 100 µM
O=C(/C=C\c1ccsc1)c1ccccc1,26.2 µM,27.7 µM,24.3 µM,4.16 µM,7.58 µM,21.8 µM,–,6.72 µM,18.5 µM,> 100 µM,25.2 µM,30.8 µM,24.6 µM,> 21.7 µM,12.3 µM,34.8 µM
COC(=O)CNC(=O)CNC(=O)CSc1nnc(COc2ccc(Cl)cc2)n1-c1ccccc1,58.8 µM,> 100 µM,> 100 µM,–,57.7 µM,> 100 µM,35.3 µM,> 100 µM,39.2 µM,> 100 µM,> 100 µM,–,> 100 µM,86.6 µM,> 100 µM,40.5 µM
O=c1sc(Nc2ccc3ccccc3c2Cl)nc2ccccc12,> 100 µM,> 100 µM,> 100 µM,> 100 µM,> 100 µM,–,> 100 µM,> 100 µM,> 100 µM,–,> 100 µM,> 100 µM,> 100 µM,> 100 µM,> 100 µM,> 100 µM
CC(NC(=O)C1CCCN1C(=O)CNC(=O)OC(C)(C)C)C(=O)O (stereo not drawn) (Boc-Gly-Pro-Ala-OH; configuration not given here),> 100 µM,> 100 µM,> 100 µM,–,–,> 100 µM,> 100 µM,> 100 µM,> 100 µM,> 100 µM,> 100 µM,> 100 µM,> 100 µM,> 100 µM,> 100 µM,> 100 µM
O=S(=O)(O)c1ccc(Nc2ccnc3ccccc23)cc1,> 100 µM,> 100 µM,> 100 µM,> 100 µM,> 100 µM,> 100 µM,> 100 µM,> 100 µM,> 100 µM,> 100 µM,–,> 100 µM,> 100 µM,> 100 µM,> 100 µM,> 100 µM
CCCCCCCCCC(=O)NCCc1c[nH]c2ccc(OC)cc12,32.9 µM,89.8 µM,36.1 µM,–,27.6 µM,34 µM,34.3 µM,33.7 µM,30.9 µM,> 100 µM,50.1 µM,31.7 µM,33.1 µM,> 100 µM,34.5 µM,41.8 µM
CC(O)CC(=O)CO[C@H]1[C@H](O)[C@@H](O)[C@@H](O)[C@@H]2NC(=O)c3c(cc4c(c3O)OCO4)[C@H]21 (stereo not given in full),0.482 µM,0.14 µM,0.0609 µM,0.2 µM,0.117 µM,0.149 µM,0.0529 µM,0.461 µM,0.545 µM,0.321 µM,0.188 µM,–,0.784 µM,0.125 µM,> 100 µM,1.02 µM
CCCCC(O)(c1ccccc1)C(O)(c1ccccc1)c1c(F)c(F)c(F)c(F)c1F (stereo not given),> 100 µM,59.6 µM,31 µM,61.9 µM,–,> 100 µM,32.6 µM,53.1 µM,34.9 µM,45.6 µM,54.4 µM,> 100 µM,31.1 µM,76.7 µM,61.8 µM,49.1 µM
CC1(c2nc3ccccc3[nH]2)CCC(C#N)C(C)(C)O1 (stereo not given),> 100 µM,> 100 µM,> 100 µM,> 100 µM,> 100 µM,> 100 µM,> 100 µM,> 100 µM,> 100 µM,> 100 µM,–,> 100 µM,> 100 µM,> 100 µM,> 100 µM,> 100 µM
O=C(O)C1CC(C2CCCCN2)CN2CCCCC12 (stereo not given),> 100 µM,> 100 µM,> 100 µM,–,> 100 µM,> 100 µM,> 100 µM,> 100 µM,> 100 µM,> 100 µM,> 100 µM,> 100 µM,> 100 µM,> 100 µM,> 100 µM,> 100 µM
COc1ccc(C(OC(=O)[C@H](O[Si](C)(C)C(C)(C)C)[C@@H](NC(=O)c2ccccc2)c2ccccc2)c2ccc(OC)cc2)cc1,> 100 µM,> 100 µM,> 100 µM,–,> 100 µM,–,> 100 µM,> 100 µM,> 100 µM,> 100 µM,> 100 µM,–,> 100 µM,> 100 µM,> 100 µM,> 100 µM
CCCC(=O)N(C)N=Nc1ccc(C(=O)OCC)cc1,> 100 µM,> 100 µM,> 100 µM,> 100 µM,> 100 µM,> 100 µM,> 100 µM,> 100 µM,> 100 µM,> 100 µM,> 100 µM,–,> 100 µM,> 100 µM,> 100 µM,> 100 µM
